Data as given in patent US10793599B2, “MPHOSPH1-derived peptide, and vaccine including same” (OncoTherapy Science, Inc., priority 2015, dated 2020).
Entries after “also recorded” stand apart in the source; their conditions may differ.

Experiments:
[1] = system: COS7 cells expressing MPHOSPH1 and HLA-A*33:03; assay: IFN-gamma production of CTL clone against target cells expressing MPHOSPH1 and HLA-A*33:03; type: cell-based, African green monkey
Procedure: (§1) Peptide-pulsed C1R-A33 (1×10^4 cells/well) was prepared as the target cell. The IFN-gamma ELISPOT assay and IFN-gamma ELISA assay were performed according to the assay kit manufacturer's manual.
A cDNA encoding the MPHOSPH1 or HLA-A*33:03 gene was amplified by PCR. The PCR-amplified product was each incorporated into an expression vector. Either or both of the MPHOSPH1 gene-expressing vector and the HLA-A*33:03 gene-expressing vector were introduced into COS7, which is a cell line negative for HLA, using Lipofectamine 2000 (Invitrogen). On the day after gene introduction, COS7 cells were detached and harvested using versene (Invitrogen), and used as the target cell for confirmation of IFN-gamma production (5×10^4 cells/well).

peptide-pulsed C1R-A33 [2] = assay: IFN-gamma ELISA of CTL lines and CTL clones (HLA-A*33:03); type: cell-based, human; conditions: listed as MPHOSPH1-A33-9-608
Procedure: CTLs were propagated using methods similar to those reported by Riddell et al. (Walter E A et al., N Engl J Med 1995, 333(16): 1038-44; Riddell S R et al., Nat Med 1996, 2(2): 216-23). The CTLs were cultured in 25 ml 5% ABS/AIM-V medium together with two types of Mitomycin C-treated human B lymphoblastoid cell lines (5×10^6 cells/25 ml medium each) and an anti-CD3 antibody (final concentration: 40 ng/ml). On the day after beginning of the culturing, IL-2 (final concentration: 120 IU/ml) was added to the culture. On days 5, 8 and 11, the medium was changed to a 5% ABS/AIM-V medium containing IL-2 (final concentration: 30 IU/ml) (Tanaka H et al., Br J Cancer 2001, 84(1): 94-9; Umano Y et al., Br J Cancer 2001, 84(8): 1052-7; Uchida N et al., Clin Cancer Res 2004, 10(24): 8577-86; Suda T et al., Cancer Sci 2006, 97(5): 411-9; Watanabe T et al., Cancer Sci 2005, 96(8): 498-506).
After induction of CTLs in vitro, the CTLs were seeded onto 96 round-bottomed microtiter plates (Nalge Nunc International) at 1 cell/well or 10 cells/well. The CTLs were cultured with two types of Mitomycin C-treated human B lymphoblastoid cell lines (1×10^4 cells/well each) in a total of 150 micro-l/well 5% ABS/AIM-V medium with an anti-CD3 antibody (final concentration: 30 ng/ml) and IL-2 (final concentration: 125 IU/ml). Ten days later, 50 micro-l 5% ABS/AIM-V medium containing 500 IU/ml IL-2 was added to the culture.
as §1

peptide-pulsed C1R-A33 [3] = assay: In vitro CTL induction, IFN-gamma ELISPOT assay (HLA-A*33:03); type: cell-based, human; conditions: CD8 positive T cells of HLA-A*33:03-positive donors after three stimulations with peptide-pulsed DCs; against peptide-pulsed C1R-A33; listed as MPHOSPH1-A33-9-608
Procedure: Monocyte-derived dendritic cells (DCs) were used as the antigen-presenting cell to induce a specific cytotoxic T lymphocyte (CTL) response against peptides presented on human leukocyte antigens (HLAs). As already reported in literatures, DCs were generated in vitro (Nakahara S et al., Cancer Res 2003, 63(14): 4112-8). Specifically, peripheral-blood mononuclear cells (PBMCs) collected from healthy volunteers (HLA-A*33:03-positive) with the Ficoll-Paque plus solution (Pharmacia) were seeded in plastic tissue culture dishes (Corning) to let the monocytes in the PBMCs adhere to the dishes. This was cultured in the presence of 1000 IU/ml granulocyte macrophage colony-stimulating factor (R&D System) and 1000 IU/ml interleukin (IL)-4 (R&D System) for seven days. An AIM-V medium (Invitrogen) containing 5% inactivated AB-type serum (ABS) was used as the medium. DCs that were induced to differentiate from monocytes using the cytokines were pulsed with 20 micro-g/ml of each synthesized peptide (37 degrees C., three hours). Peptide pulsing was carried out in an AIM-V medium containing 3 micro-g/ml beta 2-microglobulin. These peptide-pulsed DCs were inactivated by X-ray irradiation (20 Gy), mixed in a 1:20 ratio with autologous CD8 positive T cells obtained by positive selection using the CD8 Positive Isolation Kit (Invitrogen) (1.5×10^4 DCs and 3×10^5 CD8 positive T cells), and cultured in a 48-well plate (Corning). Each well contained 0.5 ml of the 5% ABS/AIM-V medium, and IL-7 (R&D System) was added there (final concentration: 10 ng/ml). Two days after the start of the culture, IL-2 (Novartis) was added (final concentration: 20 IU/ml). On day 7 and day 14 of culture, the CD8 positive T cells were further stimulated with peptide-pulsed DCs. The DCs were prepared at the time of use by the same method as above. After day 21 (after three DC stimulations), IFN-gamma production against the peptide-pulsed C1R-A33 was confirmed using human interferon (IFN)-gamma enzyme-linked immunospot (ELISPOT) assay (Tanaka H et al., Br J Cancer 2001, 84(1): 94-9; Umano Y et al., Br J Cancer 2001, 84(8): 1052-7: Uchida N et al., Clin Cancer Res 2004, 10(24): 8577-86; Suda T et al., Cancer Sci 2006, 97(5): 411-9; Watanabe T et al., Cancer Sci 2005, 96(8): 498-506).
as §1

## EFTQYWAQR (a peptide derived from MPHOSPH1) [SEQ ID NO: 118]
[1]; against COS7 cells expressing both MPHOSPH1 and HLA-A*33:03
  IFN-gamma production of peptide-specific CTL clone: showed IFN-gamma production
[1]; against negative control COS7 cells expressing either one of MPHOSPH1 and HLA-A*33:03, listed as MPHOSPH1-A33-9-608
  IFN-gamma production of peptide-specific CTL clone: a significant IFN-gamma production was not shown; also recorded: a significant IFN-gamma production was not observed
peptide-pulsed C1R-A33 [2]; CTL clone by limiting dilution, against C1R-A33 pulsed with the peptide
  peptide-specific IFN-gamma production of CTL clone (ELISA): showed a peptide-specific IFN-gamma production
peptide-pulsed C1R-A33 [2]; CTL line against C1R-A33 pulsed with the peptide
  IFN-gamma production by CTL line (ELISA): CTL lines that produce IFN-gamma in a peptide-specific manner were established; also recorded: observed
peptide-pulsed C1R-A33 [3]
  peptide-specific IFN-gamma production (ELISPOT): Peptide-specific IFN-gamma production was observed
